Earlier results, collected in publication PMC9574858, “Linker-Dependent Folding Rationalizes PROTAC Cell Permeability” (Journal of Medicinal Chemistry, 2022).

Target: CRBN (Homo sapiens, UniProt Q96SW2)
Set-up: method as in PMID 29358579

Chain of CRBN (Q96SW2 whole entry): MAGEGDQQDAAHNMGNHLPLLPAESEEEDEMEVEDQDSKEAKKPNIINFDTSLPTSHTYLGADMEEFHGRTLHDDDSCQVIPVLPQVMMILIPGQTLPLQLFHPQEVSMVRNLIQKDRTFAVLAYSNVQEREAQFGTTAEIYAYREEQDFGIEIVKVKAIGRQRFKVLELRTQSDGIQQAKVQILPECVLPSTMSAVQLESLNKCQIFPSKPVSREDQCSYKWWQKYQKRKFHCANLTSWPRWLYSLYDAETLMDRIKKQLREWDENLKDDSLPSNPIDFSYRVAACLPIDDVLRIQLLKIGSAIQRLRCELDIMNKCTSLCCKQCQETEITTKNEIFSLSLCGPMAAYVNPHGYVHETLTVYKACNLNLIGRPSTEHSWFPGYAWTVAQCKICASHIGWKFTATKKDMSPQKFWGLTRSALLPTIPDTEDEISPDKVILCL

O=C1CC[C@H](N2C(=O)c3ccccc3C2=O)C(=O)N1 [S-form of thalidomide, thalidomide]
affinity for CRBN compared with the R-form: 1 order of magnitude higher
